Source: patent publication US11976063B2, “Pharmaceutical composition comprising berberine and ursodeoxycholic acid for the treatment of various diseases or disorders” (priority 2014, dated 2024)

Experiments:
[1] = system: high fat diet (HFD) induced non-alcoholic fatty liver mice; assay: High fat diet induced non-alcoholic fatty liver mice model (Example 5); format: in vivo, NIH male mice; settings: for Body weight / Weight ratio of liver / ALT / AST / HDL-C / LDL-C / MDA / SOD / TC / TG: i.g. once daily, HFD, mean ± S.E.M; for ALT / AST / HDL-C / LDL-C / MDA / SOD / TC / TG: serum
Source text: This example describes an in vivo efficacy study of BUDCA disclosed in the present invention using a high fat diet (HFD) induced non-alcoholic fatty liver mice model.
91 NIH male mice of 4 weeks old were obtained from Vital River Laboratories (Beijing, China). After acclimatization for one week, 13 mice were selected as control group (Group 1, G1) with normal chow diet fed, and the other 78 mice were fed with HFD (in which 40% of calories is from fat) for 4 weeks to establish an animal model resembling the pathophysiology of non-alcoholic fatty liver in human.
Following 4 weeks of high fat dietary intervention, the 78 mice were divided into 6 groups according to body weight (n=13 per group): • Group 2, G2: Vehicle control (0.5% CMC-Na solution) • Group 3, G3: Low-dose group of BUDCA (30 mg/kg) • Group 4, G4: Middle-dose group of BUDCA (100 mg/kg) • Group 5, G5: High-dose group of BUDCA (300 mg/kg) • Group 6, G6: BBR control group (Berberine HCl, 150 mg/Kg) • Group 7, G7: UDCA control group (Ursodeoxycholic acid, 150 mg/Kg)
The mice from G2 to G7 were administered with the corresponding testing articles indicated above once daily by intragastric gavage. HFD continued throughout the duration of the treatment of 6 weeks. The normal mice (G1) were treated with vehicle (0.5% CMC-Na solution) via intragastric gavage. At the end of experiment, the following biochemical parameters were measured and tests were carried out: • Body weight, the weight ratio of liver • Total cholesterol (TC) and triglyceride (TG) levels, high density lipoprotein cholesterol (HDL-C) and low density lipoprotein cholesterol (LDL-C) levels • Alanine aminotransferase (ALT) and aspartate aminotransferase (AST) levels • Superoxide dismutase (SOD) activity and malondialdehyde (MDA) level • Oral glucose tolerance test (OGTT) • Histopathological examination of liver ([…] staining)
After 6 weeks treatment, blood was collected via retro-orbital bleeding of each 12-hour fasted animal. Liver was harvested by surgery for histopathology analysis after weight measurement. Then the serum was isolated for the determination of TC, TG, HDL-C, LDL-C, ALT, AST, SOD and MDA.
One week before sacrifice (Week 5 of treatment), an oral glucose tolerance test (OGTT) was performed in 12-hour fasted animals. For the OGTT, all mice received an oral glucose challenge at 2.0 g/Kg and the blood glucose concentrations were determined by glucometer (ACCU-CHEK Active, Roche) at 0, 30, 60, 90 and 120 min.
The liver tissue was histopathologically evaluated by […] staining after frozen section.

[2] = system: high fat diet (HFD) induced fatty liver golden hamster; assay: High fat diet-induced fatty liver golden hamster model (Example 6); format: in vivo, golden hamsters; settings: for Serum TC level on Day 0 / Serum TG level on Day 0: Day 0 (before treatment); for Serum TC level on Day 0 / Serum TG level on Day 0 / Serum TC level, Week 1 / Serum TG level, Week 1 / Serum TC level, Week 3 / Serum TG level, Week 3 / Serum TC level, Week 5 / Serum TG level, Week 5 / Serum TC level, Week 7 / Serum TG level, Week 7: X ± s, n = 8
Source text: This example describes an in vivo efficacy study of BUDCA salt disclosed in the present invention using a high fat diet (HFD) induced fatty liver golden hamster model.
Forty-two SPF golden hamsters with the body weight of 90-100 g were acquired from Vital River Laboratory Animal Technology Co., Ltd. After acclimatization for one week, eight hamsters were selected as normal control group (Group 1), which were fed with normal chow diet. The rest thirty-four hamsters were fed with HFD for two weeks to establish a fatty liver animal model resembling the pathophysiology of NAFLD in human.
For the thirty-four hamsters induced with HFD, twenty-four of them with TC level of 17.96±1.70 mmol/L at the fourteenth day post of HFD were selected and randomized into three groups (n=8 per group): • Group 2: Model control (0.5% tragacanth solution 10 ml/kg); • Group 3: Low-dose (BUDCA 50 mg/kg); • Group 4: High-dose (BUDCA 200 mg/kg)
The hamsters from Group 2 to 4 were treated with corresponding testing articles indicated above once a day by intragastric gavage, and HFD continued throughout the duration of the 7-week administration. The normal hamsters in Group 1 were treated with 0.5% tragacanth solution (10 ml/kg) by intragastric gavage. Serum lipid and blood glucose level, liver function index, food intake and body weight were measured throughout the study. After the 7-week administration, the hamsters were sacrificed and dissected for the general observation and histopathological analysis of liver tissue.

[3] = BUDCA 50 mg/kg i.g. once a day, Week 1
[4] = BUDCA 200 mg/kg i.g. once a day, Week 1
[5] = BUDCA 200 mg/kg i.g. once a day
[6] = both high-dose and low-dose group, P<0.01, FIG. 16
[7] = both medicated groups, P<0.01, FIG. 22

In the case of `COc1ccc2cc3[n+](cc2c1OC)CCc1cc2c(cc1-3)OCO2.C[C@H](CCC(=O)[O-])[C@H]1CC[C@H]2[C@@H]3[C@@H](O)C[C@@H]4C[C@H](O)CC[C@]4(C)[C@H]3CC[C@]12C` [BUDCA, berberine ursodeoxycholate], the Body weight ([1]; BUDCA 30 mg/kg (G3), 6 weeks) is reported as 40.3 ± 1.18 g, the “Weight ratio of liver” value ([1]; BUDCA 30 mg/kg (G3), 6 weeks) is reported as 4.33 ± 0.13% and the Body weight ([1]; BUDCA 100 mg/kg (G4), 6 weeks) is reported as 41.7 ± 1.59 g. The “Weight ratio of liver” value ([1]; BUDCA 100 mg/kg (G4), 6 weeks) was 4.15 ± 0.09%, the Body weight ([1]; BUDCA 300 mg/kg (G5), 6 weeks) was 41.5 ± 1.16 g and the “Weight ratio of liver” value ([1]; BUDCA 300 mg/kg (G5), 6 weeks) was 4.27 ± 0.10%. For the same molecule, the “Effect on symptoms of non-alcoholic fatty liver (overall efficacy)” value ([1]; BUDCA 30-300 mg/kg, berberine or ursodeoxycholic acid monotherapy 150 mg/Kg, 6 weeks) was “dose-dependently ameliorated symptoms of non-alcoholic fatty liver”, the “Gastrointestinal side effects at the time of sacrifice” value ([1]; BUDCA treated animals, 6 weeks i.g.) was “no gastrointestinal side effects were observed” and the ALT ([1]; BUDCA 30 mg/kg (G3), 6 weeks) was 30.6 ± 4.37 U/L. It also gave an AST ([1]; BUDCA 30 mg/kg (G3), 6 weeks) of 148.3 ± 7.15 U/L, an HDL-C ([1]; BUDCA 30 mg/kg (G3), 6 weeks) of 2.33 ± 0.15 mmol/L and an LDL-C ([1]; BUDCA 30 mg/kg (G3), 6 weeks) of 1.05 ± 0.09 mmol/L. It also gave an MDA ([1]; BUDCA 30 mg/kg (G3), 6 weeks) of 12.34 ± 2.89, an SOD ([1]; BUDCA 30 mg/kg (G3), 6 weeks) of 61.05 ± 11.59 U/mL and a TC ([1]; BUDCA 30 mg/kg (G3), 6 weeks) of 5.49 ± 0.25 mmol/L. For the same molecule, the TG ([1]; BUDCA 30 mg/kg (G3), 6 weeks) was 1.18 ± 0.20 mmol/L, the ALT ([1]; BUDCA 100 mg/kg (G4), 6 weeks) was 29.0 ± 3.95 U/L and the AST ([1]; BUDCA 100 mg/kg (G4), 6 weeks) was 140.2 ± 16.32 U/L. It also gave an HDL-C ([1]; BUDCA 100 mg/kg (G4), 6 weeks) of 2.26 ± 0.22 mmol/L, an LDL-C ([1]; BUDCA 100 mg/kg (G4), 6 weeks) of 1.06 ± 0.11 mmol/L and an MDA ([1]; BUDCA 100 mg/kg (G4), 6 weeks) of 8.02 ± 1.08 µM. It also gave an SOD ([1]; BUDCA 100 mg/kg (G4), 6 weeks) of 91.83 ± 4.90 U/mL, a TC ([1]; BUDCA 100 mg/kg (G4), 6 weeks) of 5.28 ± 0.50 mmol/L and a TG ([1]; BUDCA 100 mg/kg (G4), 6 weeks) of 0.92 ± 0.06 mmol/L. For the same molecule, the ALT ([1]; BUDCA 300 mg/kg (G5), 6 weeks) was 27.8 ± 3.08 U/L, the AST ([1]; BUDCA 300 mg/kg (G5), 6 weeks) was 163.5 ± 11.63 U/L and the HDL-C ([1]; BUDCA 300 mg/kg (G5), 6 weeks) was 2.48 ± 0.15 mmol/L. It also gave an LDL-C ([1]; BUDCA 300 mg/kg (G5), 6 weeks) of 1.03 ± 0.22 mmol/L, an MDA ([1]; BUDCA 300 mg/kg (G5), 6 weeks) of 7.78 ± 1.66 µM and an SOD ([1]; BUDCA 300 mg/kg (G5), 6 weeks) of 97.54 ± 4.88 U/mL. For the same molecule, the TC ([1]; BUDCA 300 mg/kg (G5), 6 weeks) was 5.95 ± 0.54 mmol/L, the TG ([1]; BUDCA 300 mg/kg (G5), 6 weeks) was 0.85 ± 0.06 mmol/L and the “Dose dependence of the effects” value ([2]; 50 vs 200 mg/kg, 7 weeks) was “relatively dose-dependent”. The “Serum TC level on Day 0” value ([2]; BUDCA 50 mg/kg group) was 18.14 ± 1.13 mmol/L, the “Serum TG level on Day 0” value ([2]; BUDCA 50 mg/kg group) was 5.97 ± 1.19 mmol/L and the “Serum TC level, Week 1” value [2, 3] was 9.33 ± 1.52 mmol/L. The “Serum TG level, Week 1” value [2, 3] was 3.60 ± 0.78 mmol/L, the “Serum TC level, Week 3” value ([2]; BUDCA 50 mg/kg i.g. once a day) was 7.58 ± 2.01 mmol/L and the “Serum TG level, Week 3” value ([2]; BUDCA 50 mg/kg i.g. once a day) was 2.98 ± 1.31 mmol/L. The “Serum TC level, Week 5” value ([2]; BUDCA 50 mg/kg i.g. once a day) was 10.50 ± 2.89 mmol/L, the “Serum TG level, Week 5” value ([2]; BUDCA 50 mg/kg i.g. once a day) was 4.51 ± 3.10 mmol/L and the “Serum TC level, Week 7” value ([2]; BUDCA 50 mg/kg i.g. once a day) was 9.78 ± 2.58 mmol/L. For the same molecule, the “Serum TG level, Week 7” value ([2]; BUDCA 50 mg/kg i.g. once a day) was 3.88 ± 1.21 mmol/L, the “Serum TC level on Day 0” value ([2]; BUDCA 200 mg/kg group) was 18.18 ± 1.10 mmol/L and the “Serum TG level on Day 0” value ([2]; BUDCA 200 mg/kg group) was 6.31 ± 1.75 mmol/L. The “Serum TC level, Week 1” value [2, 4] was 7.51 ± 0.71 mmol/L, the “Serum TG level, Week 1” value [2, 4] was 3.00 ± 0.67 mmol/L and the “Serum TC level, Week 3” value [2, 5] was 6.75 ± 1.00 mmol/L. The “Serum TG level, Week 3” value [2, 5] was 2.68 ± 1.09 mmol/L, the “Serum TC level, Week 5” value [2, 5] was 5.38 ± 1.24 mmol/L and the “Serum TG level, Week 5” value [2, 5] was 3.04 ± 1.68 mmol/L. The “Serum TC level, Week 7” value [2, 5] was 4.95 ± 0.84 mmol/L, the “Serum TG level, Week 7” value [2, 5] was 1.90 ± 0.66 mmol/L and the “AI value (arterial stiffness index) vs model control group” value [2, 6] was “significantly decreased”. For the same molecule, the “Serum LDL-c level vs model control group” value [2, 6] was “significantly decreased”, the “Value of TC/HDL-c vs model control group” value [2, 6] was “significantly decreased” and the “TC level vs model control group” value ([2]; both low-dose (50 mg/kg) and high-dose (200 mg/kg) group, P<0.01) was “significantly declined”. The “Food intake vs model control group” value ([2]; both medicated groups (50 and 200 mg/kg), P>0.05) was “no significant difference on food intake”, the “Serum AST level vs model control group” value ([2]; both medicated groups, after 7-week administration, P<0.01, FIG. 17) was “significantly declined” and the “Serum ALT level vs model control group” value ([2]; both medicated groups, after 7-week administration, P<0.01, FIG. 18) was “significantly declined”. The “Color of livers vs model control group” value ([2]; both medicated groups, FIG. 20) was “improved”, the “Liver weight vs model control group” value ([2]; both medicated groups, P<0.01, FIG. 19) was “significantly decreased” and the “Content of TC and TG in liver vs model control group” value ([2]; both medicated groups, P<0.01, FIG. 21) was “significantly decreased”. For the same molecule, the “Inflammation score of liver tissue vs model control group” value [2, 7] was “significantly decreased”, the “Positive area for oil red vs model control group” value [2, 7] was “significantly decreased” and the “TG level vs model control group, Week 1 and Week 7” value ([2]; high-dose group (200 mg/kg), Week 1 and Week 7, P<0.01) was “significantly declined”. For the same molecule, the “Serum LDL-c level, value of TC/HDL-c and AI value compared with normal control group” value ([2]; high-dose group (200 mg/kg), after 7-week administration) was “very similar to those of normal control group”, the “HDL-c level vs model control group” value ([2]; high-dose group (200 mg/kg), P<0.01) was “significantly declined” and the “Body weight, first week of treatment” value ([2]; high-dose group (200 mg/kg), P<0.05) was “significantly reduced in the first week of treatment”. The “Body weight, rest time of treatment” value ([2]; high-dose group (200 mg/kg), P>0.05) was “no significant changes were observed in the rest time of treatment”, the Color of livers ([2]; high-dose group (200 mg/kg), similar to normal control group) was “ruddy” and the “Body weight vs model control group” value ([2]; low-dose and high-dose group, at sacrifice, P>0.05) was “no significant change observed”. The “TG level vs model control group, Week 1” value ([2]; low-dose group (50 mg/kg), Week 1, P<0.01) was “significantly declined” and the “Body weight throughout the study” value ([2]; low-dose group (50 mg/kg), P>0.05) was “No significant changes were observed”.
